How the values were obtained:
[1] = test system: trained panelists; assay: Evaluation of the umami effect in hot water by trained panelists; assay type: in vivo; details: 20 ppm compound or 40 ppm solid dispersion (50:50 w/w), 4 trained panelists, blind, after 5 minutes
Method: (§1) The solutions were presented to 4 trained panelists on a blind test basis after 5 minutes. They were asked to rate the samples for the umami taste intensity from 0 to 10 (0 denoted no umami effect, and 10 denoted very strong umami taste). The sample according to the invention was rated higher in umami intensity (5.0) than the comparative sample (3.8).

[2] = test system: trained panelists; assay: Evaluation of the umami effect in hot chicken bouillon by trained panelists; assay type: in vivo; details: 20 ppm compound or 40 ppm solid dispersion (50:50 w/w), 4 trained panelists, blind, after 5 minutes
Method: as §1
The bouillons were presented to 4 trained panelists on a blind test basis after 5 minutes. The sample according to the invention was rated higher in umami intensity (6.5) than the comparative sample (5.5).

[3] = Dissolution kinetics in water at 60° C., followed by UV/Vis spectroscopy (absorbance at 310 nm); assay type: physicochemical
Method: The dissolution process was followed on-line by monitoring the UV signal of dissolved (E)-3-(3,4-dimethoxyphenyl)-N-(4-methoxyphenethyl)acrylamide with UV/Vis spectroscopy (measuring absorbance at 310 nm). The dissolution process yielded 50% of the target concentration of 20 ppm of (E)-3-(3,4-dimethoxyphenyl)-N-(4-methoxyphenethyl)acrylamide (10 ppm) after 1.5 minutes, and 95% (19 ppm) after 17 minutes.
20 mg of (E)-3-(3,4-dimethoxyphenyl)-N-(4-methoxyphenethyl)acrylamide were dispersed in 1 L of water at 60° C. The dissolution process yielded 50% of the target concentration of 20 ppm (10 ppm) after 78 minutes (factor 50 slower compared to example 1). 95% (19 ppm) of the target concentration could not be achieved after 6 hours. The concentration of dissolved (E)-3-(3,4-dimethoxyphenyl)-N-(4-methoxyphenethyl)acrylamide after 6 hours was 15 ppm (75% of target).
1.8 g of (E)-3-(3,4-dimethoxyphenyl)-N-(4-methoxyphenethyl)acrylamide and 1.8 g betaine were mixed with 116 g of a mixture of ethanol and water (50:50 w/w). The dispersion was heated to 60° C. until complete dissolution of the solid material. The solution was kept at 60° C., spray dried, and a fine, white powder was obtained. […] The dissolution process yielded 50% of the target concentration of 20 ppm of (E)-3-(3,4-dimethoxyphenyl)-N-(4-methoxyphenethyl)acrylamide (10 ppm) after 2.5 minutes, and 95% (19 ppm) after 29 minutes.

[4] = test system: trained panelists; assay: Evaluation of the umami effect in cold water by trained panelists; assay type: in vivo; details: cold water (room temperature); 20 ppm compound or 40 ppm solid dispersion (50:50 w/w); 4 trained panelists, blind, after 5 minutes
Method: as §1
The solutions were presented to 4 trained panelists on a blind test basis after 5 minutes. The sample according to the invention was rated higher in umami intensity (3.4) than the comparative sample (2.5).

time until 95% (19 ppm) of the target concentration (could not be achieved) ([3]; 20 mg in 1 L of water at 60° C.): > 6 h
concentration of dissolved compound after 6 hours ([3]; 20 mg in 1 L of water at 60° C., after 6 hours): 15 ppm
dissolved compound after 6 hours as % of target ([3]; 20 mg in 1 L of water at 60° C., after 6 hours, target 20 ppm): 75%
time until dissolution yielded 50% of the target concentration of 20 ppm (10 ppm) ([3]; 1 L of water at 60° C., target 20 ppm of the amide): 78 min
factor slower compared to example 1 (time to 50% of target concentration) ([3]; water at 60° C.): 50
SMILES: COc1ccc(CCNC(=O)/C=C/c2ccc(OC)c(OC)c2)cc1 [(E)-3-(3,4-dimethoxyphenyl)-N-(4-methoxyphenethyl)acrylamide]
umami taste intensity rating from 0 to 10 [1]: 3.8
umami intensity rating [2]: 5.5
umami intensity rating [4]: 2.5

— patent publication US11793222B2, “Solutions and dispersions of amide compounds” (Firmenich SA, priority 2016, dated 2023)
